Laboratory results as given in PubChem BioAssay (NCI).
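Dose response: 5 concentrations. Exposure: 48 h. Format: 96-well plates. Endpoint: linear interpolation; highest concentration if not reached. TGI: total growth inhibition.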

Assays:
Test in all cases: NCI-60 cell line screen, 48 h
[1] = test system: U251 CNS
[2] = test system: MDA-N
[3] = test system: M14 melanoma
[4] = test system: ACHN renal
[5] = test system: A549 NSCLC
[6] = test system: SK-MEL-5 melanoma
[7] = test system: LOX IMVI melanoma
[8] = test system: MOLT-4 leukemia
[9] = test system: A498 renal
[10] = test system: KM12 colon
[11] = test system: CAKI-1 renal
[12] = test system: MDA-MB-231 breast
[13] = test system: CCRF-CEM leukemia
[14] = test system: SK-OV-3 ovarian
[15] = test system: NCI-H226 lung
[16] = test system: OVCAR-3 ovarian
[17] = test system: SW-620 colon
[18] = test system: SK-MEL-28 melanoma
[19] = test system: HL-60(TB) leukemia
[20] = test system: SNB-19 CNS
[21] = test system: HCC-2998 colon
[22] = test system: HCT-15 colon
[23] = test system: COLO 205 colon
[24] = test system: T-47D breast
[25] = test system: SR leukemia
[26] = test system: TK-10 renal
[27] = test system: PC-3 prostate
[28] = test system: MCF7 breast
[29] = test system: HT29 colon
[30] = test system: OVCAR-4 ovarian
[31] = test system: MDA-MB-435
[32] = test system: DU-145 prostate
[33] = test system: OVCAR-8 ovarian
[34] = test system: SK-MEL-2 melanoma
[35] = test system: K-562 leukemia
[36] = test system: HOP-62 NSCLC
[37] = test system: IGROV1 ovarian
[38] = test system: MALME-3M melanoma
[39] = test system: RXF 393 renal
[40] = test system: UO-31 renal
[41] = test system: SF-295 CNS
[42] = test system: RPMI-8226 leukemia
[43] = test system: SNB-75 CNS
[44] = test system: NCI-H460 lung
[45] = test system: HOP-92 NSCLC
[46] = test system: EKVX NSCLC
[47] = test system: NCI-H23 lung
[48] = test system: UACC-62 melanoma
[49] = test system: NCI/ADR-RES ovarian
[50] = test system: OVCAR-5 ovarian
[51] = test system: UACC-257 melanoma
[52] = test system: HCT-116 colon
[53] = test system: SN12C renal
[54] = test system: BT-549 breast
[55] = test system: SF-268 CNS
[56] = test system: NCI-H522 lung
[57] = test system: SF-539 CNS
[58] = test system: 786-0 renal

`CCOC(=O)c1csc(NC(=O)CN2CCN(C)CC2)n1` was tested, and the TGI [1] was > 100 µM, the TGI [2] was > 100 µM and the TGI [3] was > 100 µM. The TGI [4] was > 100 µM, the TGI [5] was > 100 µM and the TGI [6] was > 100 µM. For the same molecule, the TGI [7] was > 100 µM, the TGI [8] was > 100 µM and the TGI [9] was > 100 µM. The TGI [10] was > 100 µM, the TGI [11] was > 100 µM and the TGI [12] was > 100 µM. For the same molecule, the TGI [13] was > 100 µM, the TGI [14] was > 100 µM and the TGI [15] was > 100 µM. The TGI [16] was > 100 µM, the TGI [17] was > 100 µM and the TGI [18] was > 100 µM. For the same molecule, the TGI [19] was > 100 µM, the TGI [20] was > 100 µM and the TGI [21] was > 100 µM. The TGI [22] was > 100 µM, the TGI [23] was > 100 µM and the TGI [24] was > 100 µM. The TGI [25] was > 100 µM, the TGI [26] was > 100 µM and the TGI [27] was > 100 µM. The TGI [28] was > 100 µM, the TGI [29] was > 100 µM and the TGI [30] was > 100 µM. The TGI [31] was > 100 µM, the TGI [32] was > 100 µM and the TGI [33] was > 100 µM. For the same molecule, the TGI [34] was > 100 µM, the TGI [35] was > 100 µM and the TGI [36] was > 100 µM. For the same molecule, the TGI [37] was > 100 µM, the TGI [38] was > 100 µM and the TGI [39] was > 100 µM. For the same molecule, the TGI [40] was > 100 µM, the TGI [41] was > 100 µM and the TGI [42] was > 100 µM. The TGI [43] was > 100 µM, the TGI [44] was > 100 µM and the TGI [45] was > 100 µM. The TGI [46] was > 100 µM, the TGI [47] was > 100 µM and the TGI [48] was > 100 µM. The TGI [49] was > 100 µM, the TGI [50] was > 100 µM and the TGI [51] was > 100 µM.
With `O=C1C[C@H]2[C@@H](O1)[C@@H](O)CN1C(=O)c3ccccc3[C@H]21` the TGI [1] was > 100 µM, the TGI [2] was > 100 µM and the TGI [3] was > 100 µM. The TGI [4] was > 100 µM, the TGI [5] was > 100 µM and the TGI [6] was > 100 µM. For the same molecule, the TGI [7] was > 100 µM, the TGI [8] was > 100 µM and the TGI [9] was > 100 µM. The TGI [10] was > 100 µM, the TGI [52] was > 100 µM and the TGI [11] was > 100 µM. The TGI [12] was > 100 µM, the TGI [13] was > 100 µM and the TGI [14] was > 100 µM. The TGI [15] was > 100 µM, the TGI [17] was > 100 µM and the TGI [18] was > 100 µM. The TGI [20] was > 100 µM, the TGI [21] was > 100 µM and the TGI [22] was > 100 µM. For the same molecule, the TGI [23] was > 100 µM, the TGI [24] was > 100 µM and the TGI [53] was > 100 µM. The TGI [25] was > 100 µM, the TGI [26] was > 100 µM and the TGI [27] was > 100 µM. For the same molecule, the TGI [28] was > 100 µM, the TGI [54] was > 100 µM and the TGI [29] was > 100 µM. For the same molecule, the TGI [30] was > 100 µM, the TGI [31] was > 100 µM and the TGI [32] was > 100 µM. For the same molecule, the TGI [33] was > 100 µM, the TGI [34] was > 100 µM and the TGI [35] was > 100 µM. The TGI [36] was > 100 µM, the TGI [55] was > 100 µM and the TGI [37] was > 100 µM. The TGI [38] was > 100 µM, the TGI [39] was > 100 µM and the TGI [40] was > 100 µM. The TGI [56] was > 100 µM, the TGI [41] was > 100 µM and the TGI [42] was > 100 µM. For the same molecule, the TGI [43] was > 100 µM, the TGI [44] was > 100 µM and the TGI [57] was > 100 µM. The TGI [46] was > 100 µM, the TGI [47] was > 100 µM and the TGI [58] was > 100 µM. For the same molecule, the TGI [48] was > 100 µM, the TGI [49] was > 100 µM and the TGI [50] was > 100 µM. The TGI [51] was > 100 µM.
With `C1CSCCSCCS1` the TGI [1] was > 100 µM, the TGI [2] was > 100 µM and the TGI [3] was > 100 µM. The TGI [5] was > 100 µM, the TGI [6] was > 100 µM and the TGI [7] was > 100 µM. For the same molecule, the TGI [8] was > 100 µM, the TGI [10] was > 100 µM and the TGI [52] was > 100 µM. For the same molecule, the TGI [12] was > 100 µM, the TGI [13] was > 100 µM and the TGI [14] was > 100 µM. For the same molecule, the TGI [16] was > 100 µM, the TGI [17] was > 100 µM and the TGI [18] was > 100 µM. The TGI [19] was > 100 µM, the TGI [20] was > 100 µM and the TGI [21] was > 100 µM. The TGI [22] was > 100 µM, the TGI [23] was > 100 µM and the TGI [24] was > 100 µM. The TGI [53] was > 100 µM, the TGI [25] was > 100 µM and the TGI [26] was > 100 µM. The TGI [27] was > 100 µM, the TGI [28] was > 100 µM and the TGI [54] was > 100 µM. For the same molecule, the TGI [29] was > 100 µM, the TGI [30] was > 100 µM and the TGI [31] was > 100 µM. For the same molecule, the TGI [32] was > 100 µM, the TGI [33] was > 100 µM and the TGI [35] was > 100 µM. For the same molecule, the TGI [36] was > 100 µM, the TGI [55] was > 100 µM and the TGI [37] was > 100 µM. For the same molecule, the TGI [39] was > 100 µM, the TGI [40] was > 100 µM and the TGI [56] was > 100 µM. The TGI [41] was > 100 µM, the TGI [42] was > 100 µM and the TGI [43] was > 100 µM. The TGI [44] was > 100 µM, the TGI [57] was > 100 µM and the TGI [45] was > 100 µM. The TGI [46] was > 100 µM, the TGI [47] was > 100 µM and the TGI [58] was > 100 µM. The TGI [48] was > 100 µM, the TGI [49] was > 100 µM and the TGI [50] was > 100 µM. The TGI [51] was > 100 µM.
With `CCSc1[nH]c(Nc2nc(-c3ccccc3)n(-c3ccccc3)n2)c(C(N)=O)c1C(N)=O` the TGI [2] was > 10 µM, the TGI [3] was > 10 µM and the TGI [5] was > 10 µM. For the same molecule, the TGI [6] was > 10 µM, the TGI [7] was > 10 µM and the TGI [8] was > 10 µM. For the same molecule, the TGI [10] was > 10 µM, the TGI [11] was > 10 µM and the TGI [12] was > 10 µM. The TGI [13] was > 10 µM, the TGI [14] was > 10 µM and the TGI [17] was > 10 µM. The TGI [18] was > 10 µM, the TGI [19] was > 10 µM and the TGI [21] was > 10 µM. The TGI [22] was > 10 µM, the TGI [23] was > 10 µM and the TGI [24] was > 10 µM. For the same molecule, the TGI [53] was > 10 µM, the TGI [25] was > 10 µM and the TGI [26] was > 10 µM. The TGI [27] was > 10 µM, the TGI [28] was > 10 µM and the TGI [29] was > 10 µM. The TGI [30] was > 10 µM, the TGI [31] was > 10 µM and the TGI [32] was > 10 µM. The TGI [33] was > 10 µM, the TGI [35] was > 10 µM and the TGI [36] was > 10 µM. The TGI [55] was > 10 µM, the TGI [37] was > 10 µM and the TGI [38] was > 10 µM. The TGI [39] was > 10 µM, the TGI [41] was > 10 µM and the TGI [42] was > 10 µM. For the same molecule, the TGI [43] was > 10 µM, the TGI [45] was > 10 µM and the TGI [46] was > 10 µM. For the same molecule, the TGI [47] was > 10 µM, the TGI [58] was > 10 µM and the TGI [48] was > 10 µM. For the same molecule, the TGI [51] was > 10 µM.
